Patent US9751854B2 (Millennium Pharmaceuticals, Inc., priority 2014, dated 2017)

Target: human VPS34 (Homo sapiens (Human), UniProt Q8NEB9)
Assay: Human VPS34 enzyme assay (Adapta TR-FRET ADP detection)
Type: biochemical
Set-up: Percent Inhibition: dose or concentration left out as unconfirmed
Settings: not given

Sequence of human VPS34 (Q8NEB9 whole entry): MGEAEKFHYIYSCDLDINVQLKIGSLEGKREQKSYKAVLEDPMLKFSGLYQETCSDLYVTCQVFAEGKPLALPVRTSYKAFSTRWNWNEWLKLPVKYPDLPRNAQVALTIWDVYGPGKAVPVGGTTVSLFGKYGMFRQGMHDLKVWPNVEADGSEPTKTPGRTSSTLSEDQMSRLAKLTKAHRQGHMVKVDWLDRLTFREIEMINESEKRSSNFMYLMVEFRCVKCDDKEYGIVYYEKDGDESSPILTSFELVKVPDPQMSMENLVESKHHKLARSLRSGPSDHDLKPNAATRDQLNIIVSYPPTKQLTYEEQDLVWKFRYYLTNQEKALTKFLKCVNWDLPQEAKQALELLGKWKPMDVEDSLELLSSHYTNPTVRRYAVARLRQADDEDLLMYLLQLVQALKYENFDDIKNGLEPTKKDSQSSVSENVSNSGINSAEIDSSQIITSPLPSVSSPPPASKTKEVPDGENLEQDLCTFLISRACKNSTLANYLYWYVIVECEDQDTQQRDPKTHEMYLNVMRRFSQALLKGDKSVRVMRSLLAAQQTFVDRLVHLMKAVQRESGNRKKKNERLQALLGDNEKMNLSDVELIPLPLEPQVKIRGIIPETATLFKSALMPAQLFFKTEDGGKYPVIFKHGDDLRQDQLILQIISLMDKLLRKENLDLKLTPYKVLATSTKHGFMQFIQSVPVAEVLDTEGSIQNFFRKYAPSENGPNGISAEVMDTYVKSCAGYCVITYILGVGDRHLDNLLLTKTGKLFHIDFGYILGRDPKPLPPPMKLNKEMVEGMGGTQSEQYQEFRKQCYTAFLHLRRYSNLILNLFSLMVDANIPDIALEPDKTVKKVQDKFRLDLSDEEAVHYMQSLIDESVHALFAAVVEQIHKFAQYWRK

Row | SMILES | Percent Inhibition [%]
1 | CC(=O)Nc1cc(-c2cc(N(C)S(C)(=O)=O)c(C)[n+]([O-])c2)ccn1 [Compound I-129, N-(4-{6-methyl-5-[methyl(methylsulfonyl)amino]-1-oxidopyridin-3-yl}pyridin-2-yl)acetamide] | 100

Same assay, conditions: IC50 range class

Row | SMILES | IC50 [µM]
2 | CCN(CC)S(=O)(=O)c1cncc(-c2ccnc(NC(C)=O)c2)c1 [Compound I-120, N-[5-(diethylsulfamoyl)-3,4′-bipyridin-2′-yl]acetamide] | < 0.01
3 | CC(=O)Nc1cc(-c2cnc(N)c(C(=O)Nc3cc(C)cnn3)c2)ccn1 [Compound I-121, 2′-acetamido-6-amino-N-(5-methylpyridazin-3-yl)-3,4′-bipyridine-5-carboxamide] | 0.05 to 0.1
4 | CC(=O)Nc1cc(-c2cnc(N)c(S(=O)(=O)O)c2)ccn1 [Compound I-122, 2′-acetamido-6-amino-3,4′-bipyridine-5-sulfonic acid] | 0.05 to 0.1
5 | COc1cccc(S(=O)(=O)Nc2cc(-c3ccnc(NC(C)=O)c3)cnc2C)c1 [Compound I-123, N-(5-{[(3-methoxyphenyl)sulfonyl]amino}-6-methyl-3,4′-bipyridin-2′-yl}acetamide] | < 0.01
6 | CCN(CC)S(=O)(=O)c1cc(-c2ccnc(NC(C)=O)c2)cnc1N [Compound I-124, N-[6-amino-5-(diethylsulfamoyl)-3,4′-bipyridin-2′-yl]acetamide] | < 0.01
7 | CC(=O)Nc1cc(-c2cnc(N)c(C(=O)N3Cc4ccccc4C3)c2)ccn1 [Compound I-125] | < 0.01
8 | CC(=O)Nc1cc(-c2cnc(N)c(S(=O)(=O)CCc3ccccc3)c2)ccn1 [Compound I-126, N-[6-amino-5-[(2-phenylethyl)sulfonyl]-3,4′-bipyridin-2′-yl]acetamide] | 0.05 to 0.1
9 | COc1ncc(-c2ccnc(NC(C)=O)c2)cc1C(=O)N(C)C [Compound I-127, 2′-acetamido-6-methoxy-N,N-dimethyl-3,4′-bipyridine-5-carboxamide] | 0.05 to 0.1
10 | CC(=O)Nc1cc(-c2cc(N(C)S(C)(=O)=O)c(C)[n+]([O-])c2)ccn1 [Compound I-129, N-(4-{6-methyl-5-[methyl(methylsulfonyl)amino]-1-oxidopyridin-3-yl}pyridin-2-yl)acetamide] | > 0.1
11 | CC(=O)Nc1cc(-c2cnc(C)c(NS(=O)(=O)c3ccc(C)cc3F)c2)c(C)cn1 [Compound I-130, N-(5-{[(2-fluoro-4-methylphenyl)sulfonyl]amino}-5′,6-dimethyl-3,4′-bipyridin-2′-yl)acetamide] | 0.05 to 0.1
12 | CC(=O)Nc1cc(-c2cnc(C)c(NS(=O)(=O)c3ccc(C(C)(C)C)cc3)c2)ccn1 [Compound I-131, N-(5-{[(4-tert-butylphenyl)sulfonyl]amino}-6-methyl-3,4′-bipyridin-2′-yl)acetamide] | < 0.01
13 | CNc1ncc(-c2ccnc(NC(C)=O)c2)cc1N1CCCS1(=O)=O [Compound I-132, N-[5-(1,1-dioxidoisothiazolidin-2-yl)-6-(methylamino)-3,4′-bipyridin-2′-yl]acetamide] | < 0.01
14 | CC(=O)Nc1cc(-c2cnc(N)c(N(C)S(C)(=O)=O)c2)ccn1 [Compound I-133, N-{6-amino-5-[methyl(methylsulfonyl)amino]-3,4′-bipyridin-2′-yl}acetamide] | < 0.01
15 | CC(=O)Nc1cc(-c2cnc(C)c(NS(=O)(=O)c3ccc(C(C)C)cc3)c2)ccn1 [Compound I-134, N-(5-{[(4-isopropylphenyl)sulfonyl]amino}-6-methyl-3,4′-bipyridin-2′-yl)acetamide] | 0.01 to 0.05
16 | CC(=O)Nc1cc(-c2cnc3ncn(CC4CC4)c3c2)ccn1 [Compound I-135, N-{4-[1-(cyclopropylmethyl)-1H-imidazo[4,5-b]pyridin-6-yl]pyridin-2-yl}acetamide] | > 0.1
17 | CC(=O)Nc1cc(-c2cnc(N)c(C(=O)Nc3ccccc3Cl)c2)ccn1 [Compound I-136, 2′-acetamido-6-amino-N-(2-chlorophenyl)-3,4′-bipyridine-5-carboxamide] | < 0.01
18 | CC(=O)Nc1cc(-c2cncc(S(=O)(=O)N(C)C)c2)ccn1 [Compound I-137, N-[5-(dimethylsulfamoyl)-3,4′-bipyridin-2′-yl]acetamide] | 0.01 to 0.05
19 | CC(=O)Nc1cc(-c2cnc(N)c(S(=O)(=O)Cc3ccc(F)cc3F)c2)ccn1 [Compound I-138, N-[6-amino-5-[(2,4-difluorobenzyl)sulfonyl]-3,4′-bipyridin-2′-yl]acetamide] | 0.01 to 0.05
20 | CC(=O)Nc1cc(-c2cncc(N)c2)ccn1 [Compound I-139, N-(5-amino-3,4′-bipyridin-2′-yl)acetamide] | > 0.1
21 | CC(=O)Nc1cc(-c2cnc3[nH]ccc3c2)ccn1 [Compound I-140, N-[4-(1H-pyrrolo[2,3-b]pyridin-5-yl)pyridin-2-yl]acetamide] | 0.01 to 0.05
22 | CNc1ncc(-c2ccnc(NC(C)=O)c2)cc1N(CC1CC1)S(C)(=O)=O [Compound I-141] | < 0.01
23 | COc1cc(C)ccc1S(=O)(=O)Nc1cc(-c2ccnc(NC(C)=O)c2)cnc1C [Compound I-142, N-(5-{[(2-methoxy-4-methylphenyl)sulfonyl]amino}-6-methyl-3,4′-bipyridin-2′-yl)acetamide] | < 0.01

Row | SMILES | IC50 [µM]
24 | CC(=O)Nc1cc(-c2cnc(C)c(NS(=O)(=O)c3cc(C(F)(F)F)ccc3F)c2)ccn1 [Compound I-143, N-[5-({[2-fluoro-5-(trifluoromethyl)phenyl]sulfonyl}amino)-6-methyl-3,4′-bipyridin-2′-yl]acetamide] | < 0.01
25 | CC(=O)Nc1cc(-c2cnc(C)c(NS(=O)(=O)c3ccccc3F)c2)ccn1 [Compound I-144, N-[5-{[(2-fluorophenyl)sulfonyl]amino}-6-methyl-3,4′-bipyridin-2′-yl)acetamide] | < 0.01
26 | CCOCCS(=O)(=O)c1cc(-c2ccnc(NC(C)=O)c2)cnc1N [Compound I-145, N-{6-amino-5-[(2-ethoxyethyl)sulfonyl]-3,4′-bipyridin-2′-yl}acetamide] | 0.05 to 0.1
27 | COC(=O)Nc1cc(-c2cnc(C)c(N3CCCS3(=O)=O)c2)ccn1 [Compound I-146, methyl [5-(1,1-dioxidoisothiazolidin-2-yl)-6-methyl-3,4′-bipyridin-2′-yl]carbamate] | 0.01 to 0.05
28 | CNc1ncc(-c2ccnc(NC(C)=O)c2)cc1N(C)S(C)(=O)=O [Compound I-147, N-{6-(methylamino)-5-[methyl(methylsulfonyl)amino]-3,4′-bipyridin-2′-yl}acetamide] | < 0.01
29 | CC(=O)Nc1cc(-c2cnc(N)c(S(=O)(=O)NCCc3ccccc3)c2)ccn1 [Compound I-148, N-{6-amino-5-[(2-phenylethyl)sulfamoyl]-3,4′-bipyridin-2′-yl}acetamide] | 0.01 to 0.05
30 | CC(=O)Nc1cc(-c2cnc(N)c(C(=O)N(C)C)c2)ccn1 [Compound I-149, 2′-acetamido-6-amino-N,N-dimethyl-3,4′-bipyridine-5-carboxamide] | 0.01 to 0.05
31 | CC(=O)Nc1cc(-c2cnc(C)c(NS(=O)(=O)c3c(F)cccc3F)c2)ccn1 [Compound I-150, N-(5-{[(2,6-difluorophenyl)sulfonyl]amino]-6-methyl-3,4′-bipyridin-2′-yl)acetamide] | < 0.01
32 | CC(=O)Nc1cc(-c2cnc3c(c2)c(S(=O)(=O)N2CCCC2)cn3C)ccn1 [Compound I-151, N-{4-[1-methyl-3-(pyrrolidin-1-ylsulfonyl)-1H-pyrrolo[2,3-b]pyridin-5-yl]pyridin-2-yl}acetamide] | 0.01 to 0.05
33 | CC(=O)Nc1cc(-c2cnc(N)c(C(=O)N3CCOCC3)c2)ccn1 [Compound I-152, N-[6-amino-5-(morpholin-4-ylcarbonyl)-3,4′-bipyridin-2′-yl]acetamide] | 0.01 to 0.05
34 | CC(=O)Nc1cc(-c2cnc(C)c(NS(=O)(=O)c3ccc(Cl)cc3)c2)ccn1 [Compound I-154, N-(5-{[(4-chlorophenyl)sulfonyl]amino}-6-methyl-3,4′-bipyridin-2′-yl)acetamide] | < 0.01
35 | CC(=O)Nc1cc(-c2cnc(C)c(NS(=O)(=O)c3cccc(F)c3)c2)ccn1 [Compound I-155, N-(5-{[(3-fluorophenyl)sulfonyl]amino}-6-methyl-3,4′-bipyridin-2′-yl)acetamide] | < 0.01
36 | CC(=O)Nc1cc(-c2cnc(N)c(S(=O)(=O)N3CCCCC3)c2)ccn1 [Compound I-156, N-[6-amino-5-(piperidin-1-ylsulfonyl)-3,4′-bipyridin-2′-yl]acetamide] | < 0.01
37 | CC(=O)Nc1cc(-c2cnc(N)c(C(=O)N3CC[C@@H](F)C3)c2)ccn1 [Compound I-157, N-[6-amino-5-{[(3R)-3-fluoropyrrolidin-1-yl]carbonyl}-3,4′-bipyridin-2′-yl)acetamide] | 0.01 to 0.05
38 | CC(=O)Nc1cc(-c2cnc3[nH]cc(S(=O)(=O)N4CCCC4)c3c2)ccn1 [Compound I-158, N-{4-[3-(pyrrolidin-1-ylsulfonyl)-1H-pyrrolo[2,3-b]pyridin-5-yl]pyridin-2-yl}acetamide] | < 0.01
39 | COc1cc(F)c(S(=O)(=O)Nc2cc(-c3ccnc(NC(C)=O)c3)cnc2C)cc1F [Compound I-159, N-(5-{[(2,5-difluoro-4-methoxyphenyl)sulfonyl]amino}-6-methyl-3,4′-bipyridin-2′-yl)acetamide] | < 0.01
40 | CNc1ncc(-c2ccnc(NC(C)=O)c2)cc1C(=O)NC12CC(C1)C2 [Compound I-160, 2′-acetamido-N-(bicyclo[1.1.1]pent-1-yl)-6-(methylamino)-3,4′-bipyridine-5-carboxamide] | 0.01 to 0.05
41 | CC(=O)Nc1cc(-c2cnc(C)c(NS(=O)(=O)c3ccc(F)cc3F)c2)c(F)cn1 [Compound I-161, N-(5-{[(2,4-difluorophenyl)sulfonyl]amino}-5′-fluoro-6-methyl-3,4′-bipyridin-2′-yl)acetamide] | < 0.01
42 | CC(=O)Nc1cc(-c2cnc(N(C)C)c(C(=O)N(C)C)c2)ccn1 [Compound I-162, 2′-acetamido-6-(dimethylamino)-N,N-dimethyl-3,4′-bipyridine-5-carboxamide] | 0.01 to 0.05
43 | COc1ccc(S(=O)(=O)Nc2cc(-c3ccnc(NC(C)=O)c3)cnc2C)c(F)c1 [Compound I-163, N-(5-{[(2-fluoro-4-methoxyphenyl)sulfonyl]amino}-6-methyl-3,4′-bipyridin-2′-yl)acetamide] | < 0.01
44 | CC(=O)Nc1cc(-c2cnc(F)c(NS(=O)(=O)c3ccc(F)cc3F)c2)ccn1 [Compound I-164, N-(5-{[(2,4-difluorophenyl)sulfonyl]amino}-6-fluoro-3,4′-bipyridin-2′-yl)acetamide] | < 0.01
